Data on 2 compounds can be found in patent US20190054186A1, “Magnetic Nanoparticle-Polymer Complexes and uses Thereof” (The University of North Carolina at Chapel Hill, priority 2016, published 2019).

Experiment [1] deals with actin cytoskeleton of MDA-MB-231, BT474 and MCF10A cells. Nature of the experiment: Actin cytoskeleton confocal imaging after pulsed AC magnetic field. The following applies: cancerous cells, CD alone (100 nM). The format is cell-based, human. The method, then: For confocal studies, MDA-MB-231, BT474 and MCF10A cells were plated on Lab-Tek II Chamber slides at a concentration of 1×10^5 cells/well and allowed to grow overnight. The cells were then treated with 0.1 mg/mL Alexa Fluor® 647-PAA-P85-MNP for 24 h followed by thorough washing with acid saline and replacement with complete media. The cells were incubated with 100 nM CD for 1 h to enact cytoskeletal damage in a nonlethal capacity. After washing, the cells were exposed to the pulsed AC magnetic field (50 Hz, 50 kA/m) (10 min on, 5 min off, total exposure 30 min). Appropriate controls included cells not exposed to the magnetic field and untreated cells. Cells were then incubated at 37° C. for 24 h, fixed using 4% paraformaldehyde and permeabilized using 0.5% Triton-X 100. Fixed cells were stained with ActinGreen 488 (Life Technologies, Carlsbad, Calif.), a phalloidin-based actin stain and Hoechst 33342. Images were acquired using a Zeiss CLSM 710 Spectral Confocal Laser Scanning Microscope with the 63×/1.4 Oil Plan Apo lens.

For experiment [2], the system named is lysosomes of MDA-MB-231, BT474 and MCF10A cells. The experiment in a line: Lysosomal membrane permeabilization, acridine orange assay. The class given is cell-based, human. The settings on record: positive control, 150 μM, three hours, no field. Here is the method: MDA-MB-231, BT474 and MCF10A cells were seeded at 1×10^5 cells/well in 8-well Lab-Tek II Chamber slides. Cells were allowed to adhere for several days and were treated with PAA-P85-MNPs at a concentration of 0.1 mg/mL. After 24 h, the cells were washed and then exposed to an AC magnetic field (50 Hz, 50 kA/m) using the pulsed exposure regime for a total of 30 min. Three hours post exposure, cells were treated for 15 min with 10 μg/mL acridine orange stain. The cells were washed 3× with PBS and kept in complete media for imaging. Positive control cells were treated with 150 μM hydrogen peroxide for 3 h followed by thorough washing and staining with acridine orange. Live cell images were acquired using a Zeiss CLSM 710 Spectral Confocal Laser Scanning Microscope with the 63×/1.4 Oil Plan Apo lens.

On to `C=C1[C@@H](C)[C@H]2[C@H](Cc3ccccc3)NC(=O)[C@]23[C@H](OC(C)=O)/C=C/[C@@](C)(O)C(=O)[C@@H](C)C/C=C/[C@H]3[C@@H]1O` [CD, Cytochalasin D], for which, in experiment [1], the actin cytoskeleton structure entry is given as “No significant differences in the cytoskeleton structure”. Consider `OO` [hydrogen peroxide], for which, in experiment [2], the “lysosomal membrane permeabilization (acridine orange)” value is reported as “loss of punctuate red fluorescence”.
